Results published in US6140120A, “Regulated transcription of targeted genes and other biological events” (Board of Trustees of Leland Stanford Jr. University, priority 1998, dated 2000).
“Also recorded” adds a separate entry of the source. Where two headings read alike, the source gives them in different places.

Key:
[1] = test system: myristoylated chimeric CD3/FKBP12 (MZF3E) receptor; test: NFAT-SEAP reporter through myristoylated chimeric CD3/FKBP12 (MZF3E) receptor; assay type: cell-based, human
From the text: In an illustrative case, this was accomplished by creating an intracellular receptor comprised of a small fragment of Src sufficient for posttranslational myristoylation (M), the cytoplasmic tail of zeta (Z; a component of the […] was also used), three consecutive FKBP12s (F3) and a flu epitope tag (E). Upon expressing the construct MZF3E (FIG. 18) in human (Jurkat) T cells, we confirmed that the encoded chimeric protein underwent FK1012-mediated oligomerization. The attendant aggregation of the zeta chains led to signaling via the endogenous TCR-signaling pathway (FIG. 15), as evidenced by secretion of alkaline phosphatase (SEAP) in response to an FK1012 (EC50 =50 nM). The promoter of the SEAP reporter gene was constructed to be transcriptionally activated by nuclear factor of activated T cells (NFAT), which is assembled in the nucleus following TCR-signaling.
Specifically, 5 μg of the eukaryotic expression vector, pBJ5, containing a myristoylated chimeric receptor was co-transfected with 4 μg NFAT-SX. MZE, MZF1E, MZF2E and MZF3E contain 0,1, 2, or 3 copies of FKBP12, respectively, downstream of a myristoylated CD3 cytoplasmic domain (see FIG. 2). As a control, 5 μg of pBJ5 was used in a parallel transfection. After 24 hours, aliquots of each transfection containing approximately 10^5 cells were incubated with log dilutions of the drug, FK1012B, as indicated. As a positive control and to control for transfection efficiency, ionomycin (1 μm) and PMA (25 ng/ml) were added to aliquots from each transfection. After an additional 12 hour incubation, the supernatants were assayed for alkaline phosphatase activity and these activities were expressed relative to that of the positive control samples. […] Compare FIGS. 7 and 8.

cell culture = test: Toxicity in cell culture; assay type: cell-based
[2] = test system: Fas-FKBP12 fusion protein (MFF3E) in Jurkat T cells; test: Cell death/apoptosis through Fas-FKBP12 fusion MFF3E in Jurkat T cells; assay type: cell-based; conditions: human Jurkat T cells
From the text: FIG. 21B depicts Immunphilin-Fas antigen chirneras and results of transient expression experiments in Jurkat T cells stably transformed with large T-antigen. Myr: the myristylation sequence taken from pp60^c-src encoding residues 1-14 (Wilson et al, Mol & Cell Biol 9 4 (1989): 1536-44); FKBP: human FKBP12; CypC: murine cyclophilin C sequence encoding residues 36-212 (Freidman et al, Cell 66 4 (1991): 799-806); Fas: intracellular domain of human Fas antigen encoding residues 179-319 (Oehm et al, J Biol Chem 267 15 (1992): 10709-15). Cells were electroporated with a plasmid encoding a secreted alkaline phosphatase reporter gene under the control of 3 tandem API promoters along with a six fold molar excess of the immunophilin fusion construct. After 24 h the cells were stimulated with PMA (50 ng/mL), which stimulates the synthesis of the reporter gene, and (CsA)2. At 48 h the cells were assayed for reporter gene activity. Western blots were performed at 24 h using anti-HA epitope antibodies.
A chimeric cDNA has been constructed consisting of three FKBP12 domains fused to the cytoplasmic signaling domain of the Fas antigen (FIG. 20). […] Since the stable transfectants represent a homogeneous population of cells, they have been used to ascertain that death is due to apoptosis rather than necrosis (membrane blebbing, nucleosomal DNA fragmentation). […]

ΔMFF3E = test: Apoptosis with non-myristoylated construct ΔMFF3E; assay type: cell-based; conditions: ΔMFF3E vs. myristoylated construct
FKBP12 = FKBP12 (Homo sapiens, UniProt P62942); test: Binding of FK1012s, stoichiometry and Kd; conditions: 2:1 binding stoichiometry
[3] = test system: calcineurin-mediated TCR signaling; test: Inhibition of calcineurin-mediated TCR signaling / immunosuppression; assay type: cell-based; conditions: listed as FK1012s
[4] = test system: FKBP12-Fas antigen chimera in D10 T cells; test: Apoptosis through FKBP12-Fas chimera in D10 T cells; assay type: cell-based; conditions: murine D10 T cells
From the text: A chimeric cDNA has been constructed consisting of three FKBP12 domains fused to the cytoplasmic signaling domain of the Fas antigen (FIG. 20). […] Since the stable transfectants represent a homogeneous population of cells, they have been used to ascertain that death is due to apoptosis rather than necrosis (membrane blebbing, nucleosomal DNA fragmentation). However, the transient transfection protocol requires much less work and has therefore been used as an initial assay system, as described below.

calcineurin = conditions: complex with cyclophilin or FKBP12; cited from earlier work
[5] = test system: chimeric FKBP12/CD3 (1FK3) receptor; test: NFAT-SEAP reporter through chimeric FKBP12/CD3 (1FK3) receptor; assay type: cell-based, human; conditions: 2 ng/ml FK506; FK1012A-stimulated
Protocol: 5 μg of the eukaryotic expression vector, pBJ5, (based on pCDL-SR with a polylinker inserted between the 16S splice site and the poly A site), containing the chimeric receptor (1FK3), was co-transfected with 4 μg of the NFAT-inducible secreted alkaline phosphatase reporter plasmid, NFAT-SX. As a control, 5 μg of pBJ5 was used, instead of 1FK3/pBJ5, in a parallel transfection. After 24 hours, aliquots of each transfection containing approximately 10^5 cells were incubated with log dilutions of the drug, FK1012A, as indicated. As a positive control and to control for transfection efficiency, ionomycin (1 μm) and PMA (25 ng/ml) were added to aliquots from each transfection. After an additional 14 hour incubation, the supernatants were assayed for alkaline phosphatase activity and these activities were expressed relative to that of the positive control samples.

[6] = test system: TAC/TAC/Z (TTZ) chimeric receptor; IL-2 enhancer/NFAT reporter in TAg Jurkat cells; test: SEAP reporter induction through chimeric receptor TAC/TAC/Z (TTZ); assay type: cell-based, human; conditions: 1 ng/ml FK506
Protocol: As a positive control and to control for transfection efficiency, ionomycin (1 μm) and PMA (25 ng/ml) were added to aliquots from each transfection.

[7] = test system: MZF3E chimera in Jurkat T cells; test: Co-immunoprecipitation of MZF3Eflu with MZF3Eflag (induced dimerization); assay type: cell-based, human; conditions: 1 μM
[8] = test system: T cell receptor zeta chain / MZF3E in Jurkat cells; test: Recruitment of kinase activity to zeta-chain (in vitro kinase assay after immunoprecipitation) and tyrosine phosphorylation; assay type: cell-based, human; conditions: Jurkat cells stably transfected with MZF3E
From the text: FK1012-induced protein-tyrosine phosphorylation. The intracellular domains of the TCR, CD3 and zeta-chains interact with cytoplasmic protein tyrosine kinases following antigen stimulation. Specific members of the Src family (lck and/or fyn) phosphorylate one or more tyrosine residues of activation motifs within these intracellular domains (tyrosine activation motif, TAM). The tyrosine kinase ZAP-70 is recruited (via its two SH2 domains) to the tyrosine phosphorylated T-cell-receptor, activated, and is likely to be involved in the further downstream activation of phospholipase C. […] Tyrosine phosphorylation after treatment of cells with either anti-CD3 MAb or FK1012 was detected using monoclonal alpha-phosphotyrosine antibodies. Whole cell lysates were analysed at varying times after stimulation. […] The pattern consisted of a major band of 70 kDa, probably ZAP-70, and minor bands of 120 kDa, 62 kDa, 55 kDa and 42 kDa.

MZF1Eflu and MZF1Eflag = test: Co-immunoprecipitation of FKBP monomer constructs MZF1E; assay type: cell-based, human

Sequence of FKBP12 (P62942 whole entry): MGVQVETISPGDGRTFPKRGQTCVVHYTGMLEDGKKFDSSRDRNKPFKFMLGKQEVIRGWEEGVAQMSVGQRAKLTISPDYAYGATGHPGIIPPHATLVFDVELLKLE

CO[C@H]1C[C@@H](C)C/C(C)=C/[C@@H](CCOC(=O)NCc2ccccc2)C(=O)C[C@H](O)[C@@H](C)[C@@H](/C(C)=C/[C@@H]2CC[C@@H](O)[C@H](OC)C2)OC(=O)[C@@H]2CCCCN2C(=O)C(=O)[C@]2(O)O[C@H]1[C@@H](OC)C[C@H]2C [FK506-M]
termination of FK1012-induced signaling ([1]; monomeric ligand): FK1012-induced signaling can be terminated | toxicity of monomeric ligand (cell culture; in words): nontoxic

FK1012
EC50 ([1]; Jurkat T cells expressing MZF3E, read-out: EC50, secretion of alkaline phosphatase (SEAP)): 50 nM | induction of cell death / apoptosis [2]: FK1012-dependent apoptosis; also recorded: cell death of the Jurkat T-cell line | potency of mutated construct as inducer of FK1012-dependent apoptosis (ΔMFF3E): equally potent | Kd (FKBP12; read-out: Kd (1)): 0.1 nM | Kd (FKBP12; read-out: Kd (2)): 0.8 nM | inhibition of signaling [3]: does not inhibit signaling pathways; also recorded: do not inhibit calcineurin-mediated TCR signaling | induction of apoptosis [4]: FK1012-dependent apoptosis | toxicity (cell culture; FK1012s: up to 0.1 mM in cell culture): nor toxic (up to 0.1 mM in cell culture)

C=CC[C@@H]1/C=C(\C)C[C@H](C)C[C@H](OC)[C@H]2O[C@@](O)(C(=O)C(=O)N3CCCC[C@H]3C(=O)O[C@H](/C(C)=C/[C@@H]3CC[C@@H](O)[C@H](OC)C3)[C@H](C)[C@@H](O)CC1=O)[C@H](C)C[C@@H]2OC [FK506]
stimulation of NFAT reporter on addition of FK506 ([1]; 1 ng/ml FK506, FK1012B-stimulated): dropped all stimulations to near background levels | binding to / inactivation of calcineurin as immunophilin complex (calcineurin): binds with high affinity to calcineurin | stimulation of NFAT reporter on addition of FK506 [5]: dropped all stimulations to background levels | response of NFAT reporter on addition of FK506 [6]: dropped all activity due to NFAT to background levels

CO[C@H]1C[C@@H](C)C/C(C)=C/[C@@H](CCOC(=O)NCc2ccc(CNC(=O)OCC[C@@H]3/C=C(\C)C[C@H](C)C[C@H](OC)[C@H]4O[C@@](O)(C(=O)C(=O)N5CCCC[C@H]5C(=O)O[C@H](/C(C)=C/[C@@H]5CC[C@@H](O)[C@H](OC)C5)[C@H](C)[C@@H](O)CC3=O)[C@H](C)C[C@@H]4OC)cc2)C(=O)C[C@H](O)[C@@H](C)[C@@H](/C(C)=C/[C@@H]2CC[C@@H](O)[C@H](OC)C2)OC(=O)[C@@H]2CCCCN2C(=O)C(=O)[C@]2(O)O[C@H]1[C@@H](OC)C[C@H]2C [FK1012A]
coimmunoprecipitation of MZF3Eflu with MZF3Eflag [7]: interacts with MZF3Eflu and is coimmunoprecipitated with MZF3Eflag | recruitment of kinase activity to the zeta-chain [8]: recruitment of kinase activity to the zeta-chain | dimerization of FKBP monomer constructs (MZF1Eflu and MZF1Eflag): also dimerized
